PubChem BioAssay (NCI)
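Five concentrations, 48 hours, 96-well plates. GI50 is the concentration that inhibits growth by half. TGI denotes the concentration required for complete inhibition of growth.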

Legend:
Experiment in all cases: NCI tumour cell line growth inhibition, 48 h
EKVX NSCLC = tested on: EKVX NSCLC
HL-60(TB) leukemia = tested on: HL-60(TB) leukemia
K-562 leukemia = tested on: K-562 leukemia
LOX IMVI melanoma = tested on: LOX IMVI melanoma
NCI-H226 lung = tested on: NCI-H226 lung
SK-MEL-28 melanoma = tested on: SK-MEL-28 melanoma
SK-MEL-5 melanoma = tested on: SK-MEL-5 melanoma
SNB-19 CNS = tested on: SNB-19 CNS
UACC-257 melanoma = tested on: UACC-257 melanoma
UACC-62 melanoma = tested on: UACC-62 melanoma

Row | SMILES | GI50 (EKVX NSCLC) [µM] | TGI (EKVX NSCLC) [µM] | GI50 (HL-60(TB) leukemia) [µM] | TGI (HL-60(TB) leukemia) [µM] | GI50 (K-562 leukemia) [µM] | TGI (K-562 leukemia) [µM] | GI50 (LOX IMVI melanoma) [µM] | TGI (LOX IMVI melanoma) [µM] | GI50 (NCI-H226 lung) [µM] | TGI (NCI-H226 lung) [µM] | GI50 (SK-MEL-28 melanoma) [µM] | TGI (SK-MEL-28 melanoma) [µM] | GI50 (SK-MEL-5 melanoma) [µM] | TGI (SK-MEL-5 melanoma) [µM] | GI50 (SNB-19 CNS) [µM] | TGI (SNB-19 CNS) [µM] | GI50 (UACC-257 melanoma) [µM] | TGI (UACC-257 melanoma) [µM] | GI50 (UACC-62 melanoma) [µM] | TGI (UACC-62 melanoma) [µM]
1 | O=C1C(=O)c2ccccc2C(O)=C1CCCc1ccc(C2CCCCCC2)cc1 | 0.939 | 50.6 | 0.698 | 11.1 | 0.447 | > 34.8 | 0.322 | 10.5 | 2.2 | 31.7 | 5.04 | > 93.3 | 0.445 | 11.5 | 0.803 | > 100 | 0.662 | > 23.3 | 0.718 | 21.2
2 | COc1ccc2c(c1)CC1c3c(ccc(OC)c3O)CC2N1C (centres undefined) |  | > 84.3 |  | 40.3 |  | 58.9 |  | 38.9 |  | > 100 |  | 43.8 |  | 32.7 |  | > 100 |  | 50.6 |  | > 100
3 | Cc1ccc(C(SCC(N)C(=O)O)(c2ccccc2)c2ccccc2)cc1 (centres undefined) | 0.21 | > 100 | 0.0878 |  | 0.0485 | > 100 | 0.247 | 21.6 | 9.29 | 42.9 | 6.5 | > 100 | 0.0452 | 19.6 | 0.125 | > 100 | 22.8 | > 100 | 0.0561 | > 59.4
4 | CC(=O)[CH-]C(=O)c1ccccc1.CC(=O)[CH-]C(=O)c1ccccc1.Cl.[O-]c1ccccn1.[O-]c1ccccn1.[Ti+4] | > 100 | > 100 | > 100 | > 100 | > 100 | > 100 | > 100 | > 100 | > 100 | > 100 | > 100 | > 100 | > 100 | > 100 | > 100 | > 100 | > 100 | > 100 | > 100 | > 100
5 | O=[N+]([O-])c1ccc(/C=C/c2csnn2)cc1 |  | > 100 |  | > 100 |  | > 100 |  | > 100 |  | > 100 |  | > 100 |  | > 100 |  | > 100 |  | > 100 |  | > 100
6 | O=c1c(Br)cc2c(-c3ccccc3)c3cc(Br)c(O)c(Br)c3oc-2c1Br |  | > 100 |  | > 100 |  | > 100 |  | > 100 |  | > 100 |  | > 100 |  | > 100 |  | > 100 |  | > 100 |  | > 100
7 | CC1(C)C=N[N+]2(C)C3C=CC(CC3)C12 (centres undefined) |  | > 100 |  | > 100 |  | > 100 |  | > 100 |  | > 100 |  | > 100 |  | > 100 |  | > 100 |  | > 100 |  | > 100
8 | CCCCCCCCCCCCCCCC(=O)OCC1OC(OC)C2NP(=O)(N(CCCl)CCCl)OC1C2O (centres undefined) |  | 47.4 |  | 4.48 |  | 24 |  | 6.58 |  | 32.2 |  | 61.1 |  | 38 |  | 65.6 |  | 42.9 |  | 8.71
9 | CN(C)CC(C(=O)Cc1ccccc1)c1ccccc1 (centres undefined) | 17 | 40.5 | 1.83 | 5.75 | 1.62 | > 100 | 1.39 | 3.04 | 13.8 | 38.3 | 3.22 | 10.2 | 11.6 | 25.2 | 15 | 30 | 1.79 | 4.25 | 6.16 | 20.1
10 | CN1CCN(Cc2ccc(NC(=O)c3cncc(C#Cc4cncc5nccnc45)c3)cc2C(F)(F)F)CC1 | > 50 | > 50 | 0.342 | 4.76 | 0.005 | 9.86 | 0.695 | 5.48 | 0.628 | > 50 | 1.66 | 5.97 | 2.61 | 8.63 | 9 | 18.9 | 1.48 | 6.27 | 1.55 | 7.21
11 | C[C@]12CC[C@H]3[C@@H](C[C@@H]4SC(Nc5ccccc5)=N[C@@]45CC(O)CC[C@]35C)[C@@H]1CCC2O (some centres undefined) | 2.75 | 9.26 | 2.02 | 6.87 | 2.45 | 12.6 | 1.33 | 2.77 | 2.4 | 5.57 | 1.68 | 3.99 | 1.82 | 3.41 | 1.86 | 3.77 | 2.54 | 6.68 | 1.83 | 3.96
12 | CCCCNC(=O)Oc1ccc(/C(=C(/C)Cc2ccc(OC)cc2)c2ccc(OCCN3CCCC3)cc2)cc1 | 1.86 | 5.5 | 1.64 | 3.82 | 1.57 | 5.13 | 1.67 | 3.2 | 3.03 | 11.4 | 1.83 | 3.57 | 1.66 | 3.17 | 3.47 | 11.4 | 1.88 | 3.44 | 1.94 | 3.59
13 | COc1cc2ncnc(Nc3ccc4c(cnn4Cc4ccccc4)c3)c2cc1OC | 0.0796 | > 25 | 12.5 | > 21 | 7.27 | > 19.7 | > 19.4 | > 25 | > 25 | > 25 | > 25 | > 25 | > 17.5 | > 25 | > 25 | > 25 | > 25 | > 25 | > 25 | > 25
14 | C/C=C/[C@H]1O[C@@H]2C(=C[C@H]1O)C(=O)O[C@H]2C | 13.4 | 30.8 | 35.7 | > 100 | 7.55 | > 33.8 | 15 | 31.5 | 18.4 | 48.1 | 0.786 | 12.1 | 9.89 | 23.3 | 35.6 | > 54.6 | 21.7 | 43.7 | 17.6 | 33.5
